Reference: the supplement of paper PMC10307832

Key:
Test in all cases: relative viability (nuclei count vs DMSO), 5 days (fraction); higher = more cells survive
AZ3146 + Decitabine = compound: CN1CCC(CC1)OC2=CC(=C(C=C2)NC3=NC=C4C(=N3)N(C(=O)N4C)C5CCCC5)OC [AZ3146] + Nc1ncn([C@H]2C[C@H](O)[C@@H](CO)O2)c(=O)n1 [Decitabine] (partner 2 µM)
In short: (§1)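 Lung cancer cell lines in 1536-well plates got either a single drug or a fixed anchor-drug dose together with five library-drug doses (not always all listed) in √10 steps, by pin tool, on the day after seeding. Nuclei were counted after 5 days, and relative viability is the treated-to-vehicle ratio of nuclei counts. Values are medians of duplicate plates.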

AZ3146 + Lapatinib = compound: CN1CCC(CC1)OC2=CC(=C(C=C2)NC3=NC=C4C(=N3)N(C(=O)N4C)C5CCCC5)OC [AZ3146] + CS(=O)(=O)CCNCc1ccc(-c2ccc3ncnc(Nc4ccc(OCc5cccc(F)c5)c(Cl)c4)c3c2)o1 [Lapatinib] (partner 2 µM)
In short: as §1

GSK-J4 + Pemetrexed = compound: CCOC(=O)CCNc1cc(N2CCc3ccccc3CC2)nc(-c2ccccn2)n1 [GSK-J4] + Nc1nc2[nH]cc(CCc3ccc(C(=O)N[C@@H](CCC(=O)O)C(=O)O)cc3)c2c(=O)[nH]1 [Pemetrexed] (partner 0.2 µM)
In short: as §1

GSK-J4 + Alpelisib = compound: CCOC(=O)CCNc1cc(N2CCc3ccccc3CC2)nc(-c2ccccn2)n1 [GSK-J4] + Cc1nc(NC(=O)N2CCC[C@H]2C(N)=O)sc1-c1ccnc(C(C)(C)C(F)(F)F)c1 [Alpelisib] (partner 2 µM)
In short: as §1

Question: What does the source list for UMC-11?
Answer: relative viability (AZ3146 + Decitabine; first compound 0.08 µM): 0.435; relative viability (AZ3146 + Decitabine; first compound 0.253 µM): 0.558; relative viability (AZ3146 + Decitabine; first compound 0.8 µM): 0.454; relative viability (AZ3146 + Decitabine; first compound 2.53 µM): 0.579; relative viability (AZ3146 + Decitabine; first compound 8 µM): 0.385; relative viability (AZ3146 + Lapatinib; first compound 0.08 µM): 0.793; relative viability (AZ3146 + Lapatinib; first compound 0.253 µM): 0.963; relative viability (AZ3146 + Lapatinib; first compound 0.8 µM): 0.99; relative viability (AZ3146 + Lapatinib; first compound 2.53 µM): 0.978; relative viability (AZ3146 + Lapatinib; first compound 8 µM): 0.531; relative viability (GSK-J4 + Pemetrexed; first compound 0.5 µM): 0.759; relative viability (GSK-J4 + Pemetrexed; first compound 1.581 µM): 0.667; relative viability (GSK-J4 + Pemetrexed; first compound 5 µM): 0.736; relative viability (GSK-J4 + Pemetrexed; first compound 15.81 µM): 0.771; relative viability (GSK-J4 + Pemetrexed; first compound 50 µM): 0.649; relative viability (GSK-J4 + Alpelisib; first compound 0.5 µM): 0.932; relative viability (GSK-J4 + Alpelisib; first compound 1.581 µM): 0.856; relative viability (GSK-J4 + Alpelisib; first compound 5 µM): 1.06; relative viability (GSK-J4 + Alpelisib; first compound 15.81 µM): 0.938; relative viability (GSK-J4 + Alpelisib; first compound 50 µM): 0.607
